Our source for the half-life and microsomal CLint values is patent US20170333515A1, “COMPOSITIONS AND METHODS FOR ENHANCING THE METABOLIC ACTIVITY OR STABILITY OF CURCUMIN” (priority 2015, published 2017).

Data set [1] is described as follows: in vitro. As to conditions: both. As for the experimental part:
The objective of this study was to determine the stability of curcumin in human liver microsomes in the absence and presence of xanthohumol at a concentration of 1 μM.
(§1) Mixed-gender human liver microsomes (Lot #1210347) were purchased from XenoTech. The reaction mixture, minus cofactors, was prepared as described below. The test article was added into the reaction mixture at a final concentration of 1 μM. second experiment was also performed with 1 μM xanthohumol also present in the reaction mixture. The control compounds, testosterone and 7-hydroxycoumarin (7-HC), were run simultaneously with the test article in separate reactions. An aliquot of the reaction mixture (without cofactors) was equilibrated in a shaking water bath at 37° C. for 3 minutes. The reaction was initiated by the addition of cofactors, and the mixture was incubated in a shaking water bath at 37° C. Aliquots (100 μL) were withdrawn at 0, 10, 20, 30, and 60 minutes for the test article and 0, 10, 30, and 60 minutes for testosterone and 7-HC. All samples were immediately combined with 400 μL of ice-cold 50/50 acetonitrile/H2O containing 0.1% formic acid and internal standard to terminate the reaction. The samples were then mixed and centrifuged to precipitate proteins. All samples were assayed by LC-MS/MS using electrospray ionization. Analytical conditions are outlined in Appendix 1. The peak area response ratio (PARR) to internal standard was compared to the PARR at time 0 to determine the percent remaining at each time point. Half-lives were calculated using GraphPad software, fitting to a single-phase exponential decay equation.

Data set [2] can be described thus: in vitro. As to the method: The objective of this study was to determine the stability of curcumin in human liver microsomes in the absence and presence of xanthohumol at a concentration of 10 μM, which is 10 fold higher than the previous study.
The objective of this study was to determine the stability of curcumin in human liver microsomes in the absence and presence of 10 μM xanthohumol.
as §1, with “μM. A” for “μM.”, “with 10” for “with 1”

Where [3] appears, read: both, human, microsomes, Half-life.

In general, half-life refers to how long it takes for the measured level to halve. For orientation: microsomal CLint means a measure of how fast metabolising enzymes remove a compound, apart from limits set by blood flow. Regarding `COc1cc(C=CC(=O)CC(=O)C=Cc2ccc(O)c(OC)c2)ccc1O` [Curcumin, 1,7-Bis(4-hydroxy-3-methoxyphenyl)-1,6-heptadiene-3,5-dione], the half-life at 1 μM is 4.4 min in the data set “in vitro [1]” (human, microsomes); under 10 min in the data set “in vitro [2]” (setting [3]); 4.7 min in “in vitro [2]” (both, human, microsomes, Half-life (value in parentheses)). Also, the microsomal CLint at 1 μM was 313 µL/min/mg in “in vitro [1]” (human, microsomes); over 139 µL/min/mg in “in vitro [2]” (both, human, microsomes, CLint); 296 µL/min/mg in the data set “in vitro [2]” (both, human, microsomes, CLint (value in parentheses)). The half-life in the data set “in vitro [2]” (both, human, microsomes, 1 μM) was under 10 min.

With `C[C@]12CC[C@H]3[C@@H](CCC4=CC(=O)CC[C@@]43C)[C@@H]1CC[C@@H]2O` [Testosterone, testosterone], the microsomal CLint stood at 74 µL/min/mg in “in vitro [1]” and 57.7 µL/min/mg in the data set “in vitro [2]” (both, human, microsomes). Moreover, the half-life in “in vitro [2]” (control compounds, human liver microsomes, separate reactions, Example 4) is given as 24 min.

As for `O=c1ccc2ccc(O)cc2o1` [7-HC, 7-hydroxycoumarin], the half-life is 10 min in “in vitro [1]” (human, microsomes) and 12 min in “in vitro [2]” (setting [3]). The microsomal CLint is 136 µL/min/mg in the data set “in vitro [1]” (human, microsomes) and 120 µL/min/mg in “in vitro [2]” (both, human, microsomes, CLint).
